Data published in patent publication US8609695B2, “Methods of treating and/or suppressing insulin resistance” (Endorecherche, Inc., priority 1999, dated 2013).

Tested on: ovariectomized female rats
Assay: Uterine weight, fat and lipid, 20-day treatment (Example 13)
Assay type: in vivo, Rattus norvegicus
Conditions: 20 days
Protocol: The objective of this study was to compare the effect on uterine, weight, fat and blood lipids following treatment with EM-652.HCl, ERA-923 and lasofoxifene, administered alone or in combination with EM-652.HCl, to ovariectomized female rats. For this purpose, each compound was administered orally for 20 days to ovariectomized female rats and at the end of the treatment period, the uterus and fat were collected and weighed.
d) Diet: • Certified Rodent feed (Lab Diet #5002, pellets) and tap water were provided ad libitum. Randomization:
Seventy rats were separated into 7 groups of 9 to 11 animals for conduct of the study outlined below:
Animals from groups 2 to 9 were ovariectomized under Isoflurane-induced anesthesia on Day 7 of the study.
The vehicle or tested compounds were given as suspension in 0.4% methylcellulose by oral gavage (0.5 ml/gavage/rat) from Day 2 to Day 21 of the study.
Rats were weighed on Study Day 1 and at the necropsy (SD 22).
Approximately 24 hours after the last dosing, overnight fasted rats under Isoflurane-induced anesthesia were killed by exsanguination at the abdominal aorta.
Uteri and retroperitonal adipose tissue were removed and weighed.

[1] = OVX rats, commercial rodent diet, 0.5 mg oral, EM-652.HCl 2.5 mg in combinations

## CC1=C(c2ccc(O)cc2)[C@H](c2ccc(OCCN3CCCCC3)cc2)Oc2cc(O)ccc21.Cl [EM-652.HCl, (S)-(+)-7-hydroxy-3-(4′-hydroxyphenyl)-4-methyl-2-(4″-(2′″-piperidino-ethoxy)phenyl)-2H-1-benxopyran hydrochloride]
0.5 mg
  OVX-induced increase in total serum cholesterol levels: completely prevented
OVX rats, 0.5 mg
  prevention of body weight increase induced by ovariectomy: 64%
[1]
  Cholesterol: 1.00 ± 0.11 mmol/L
  Final Body Weight: 238 ± 4 g
